Common to all, as to test: Bliss excess, mean over the matrix (fraction); higher = more synergy
Assay [1] has as its system CAPAN-1 (Pancreatic Carcinoma). In outline: (§1)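 After 24 hours at 37°C and 5% CO2 in 1536-well plates, cells in DMEM/F12 or RPMI plus 10% FBS received two-drug dose matrices for 72 hours. Viability came from CellTiter-Glo 2.0 luminescence and was scaled as inhibition, anchored at 0 by vehicle wells and at 1 by blank wells. Combination Emax is taken as the second-highest inhibition in the matrix, and Bliss excess as the observed combination effect less EA + EB − EA·EB, with EA and EB the single-agent effects.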

The test system of assay [2] is K5 (Thyroid Gland Carcinoma). In outline:
as §1

For assay [3], the system named is MDA-MB-468 (Breast Carcinoma). In outline:
as §1

Assay [4] has as its system NB14 (Neuroblastoma). In outline:
as §1

In assay [5] the test system is NCI-H2461 (Mesothelioma). In outline:
as §1

Assay [6] has as its system RPMI-6666 (Non-Cancerous). In outline: as §1
The test system of assay [7] is SH-4 (Melanoma). The method, boiled down:
as §1

The test system of assay [8] is NCI-H747 (Colorectal Carcinoma). In outline: as §1

`Cc1nc(-c2cn3c(n2)-c2ccc(-c4cnn(C(C)(C)C(N)=O)c4)cc2OCC3)n(C(C)C)n1` [Taselisib] + O=C(Nc1ccc2[nH]nc(-c3ccncc3)c2c1)[C@@H]1CCN(CC(=O)N2CCN(c3ccc(-c4ncccn4)cc3)CC2)C1 [SCH772984] (first compound max 10 µM, 7x7, partner max 5 µM): the Bliss excess in assay [1] was 0.0449; in assay [2] it was 0.0419; in assay [3] it was -0.003; in assay [4] it was 0.192; in assay [5], -0.012; in assay [6] it was -0.001. In addition, in assay [7], the Bliss excess was found to be 0.0374.

Turning to `COc1nnc2ccc(N3CCC(c4ccc(OCCN5CCN(C)C(=O)[C@H]5C)cc4)CC3)nn12` [AZD5153] + Cn1cnc2c(F)c(Nc3ccc(Br)cc3Cl)c(C(=O)NOCCO)cc21 [Selumetinib] (first compound max 1 µM, 7x7, partner max 10 µM), the Bliss excess in assay [1] is -0.0226; in assay [2], -0.0937; in assay [4], -0.0325; in assay [5] it was -0.0415; in assay [8], -0.0727; in assay [6], -0.0462. In assay [7], the Bliss excess came out at 0.0222.

For the molecule `C=CCn1c(=O)c2cnc(Nc3ccc(N4CCN(C)CC4)cc3)nc2n1-c1cccc(C(C)(C)O)n1` [AZD1775] + CCc1c2c(nc3ccc(O)cc13)-c1cc3c(c(=O)n1C2)COC(=O)[C@]3(O)CC [SN-38] (first compound max 1 µM, partner max 0.3 µM), the Bliss excess in assay [1] is -0.0635; in assay [2], -0.0219; in assay [3] it was -0.0811; in assay [4] it was -0.007; in assay [5] it was -0.1; in assay [6], -0.048. Further, in assay [7], the Bliss excess was -0.072.

As for `NC1(C(=O)N[C@@H](CCO)c2ccc(Cl)cc2)CCN(c2ncnc3[nH]ccc23)CC1` [Capivasertib] + CC(C)n1c(=O)n(C)c2cnc3cc(F)c(-c4ccc(OCCCN5CCCCC5)nc4)cc3c21 [AZD1390] (first compound max 10 µM, 7x7, partner max 0.3 µM), the Bliss excess is -0.0812 in assay [1]; -0.0539 in assay [2]; -0.0464 in assay [3]; -0.0269 in assay [4]; -0.0579 in assay [5]; -0.0791 in assay [8]. Besides, the Bliss excess was -0.08 in assay [6] and -0.0856 in assay [7].

For the molecule `CC(=O)c1c(C)c2cnc(Nc3ccc(N4CCNCC4)cn3)nc2n(C2CCCC2)c1=O` [Palbociclib] + Cc1c2c(nn1C)CSCc1cc(n(C)n1)CSc1cc(c3ccccc3c1)OCCCc1c(C(=O)O)n(C)c3c-2c(Cl)ccc13 [AZD5991] (first compound max 10 µM, 7x7, partner max 1 µM), the Bliss excess in assay [1] is -0.033; in assay [2], -0.046; in assay [3], 0.0078; in assay [4], -0.0498; in assay [5] it was -0.056; in assay [8] it was -0.0196. Also, the Bliss excess was -0.0533 in assay [6] and -0.0267 in assay [7].

As for `C[C@@H](c1ccc2nccn2c1)n1nnc2ncc(-c3cnn(C)c3)nc21` [Savolitinib] + CC1(C)CCC(CN2CCN(c3ccc(C(=O)NS(=O)(=O)c4ccc(NCC5CCOCC5)c([N+](=O)[O-])c4)c(Oc4cnc5[nH]ccc5c4)c3)CC2)=C(c2ccc(Cl)cc2)C1 [Venetoclax] (first compound max 1 µM, 7x7, partner max 1 µM), the Bliss excess in assay [1] is -0.0613; in assay [2], -0.0374; in assay [4], -0.0082; in assay [5], -0.0641; in assay [8], -0.0817; in assay [6], -0.0557. For the same molecule, the Bliss excess in assay [7] is -0.0535.

On to `CS(=O)(=O)CCNCc1ccc(-c2ccc3ncnc(Nc4ccc(OCc5cccc(F)c5)c(Cl)c4)c3c2)o1` [Lapatinib] + Cn1cnc2c(F)c(Nc3ccc(Br)cc3Cl)c(C(=O)NOCCO)cc21 [Selumetinib] (first compound max 10 µM, 7x7, partner max 10 µM), for which the Bliss excess in assay [1] is -0.0664; in assay [2] it was -0.022; in assay [3], -0.0835; in assay [4], 0.0397; in assay [5], -0.0492; in assay [6] it was 0.0204. The Bliss excess in assay [7] was -0.0519.

On to `COc1nnc2ccc(N3CCC(c4ccc(OCCN5CCN(C)C(=O)[C@H]5C)cc4)CC3)nn12` [AZD5153] + C=CCn1c(=O)c2cnc(Nc3ccc(N4CCN(C)CC4)cc3)nc2n1-c1cccc(C(C)(C)O)n1 [AZD1775] (first compound max 1 µM, partner max 1 µM), for which the Bliss excess in assay [1] was -0.0397; in assay [2], -0.0111; in assay [4], -0.073; in assay [5] it was -0.0344; in assay [8], -0.0633; in assay [6], -0.0821. Moreover, the Bliss excess in assay [7] was -0.106.

Take `COc1nnc2ccc(N3CCC(c4ccc(OCCN5CCN(C)C(=O)[C@H]5C)cc4)CC3)nn12` [AZD5153] + CCN(CCO)CCCOc1ccc2c(Nc3cc(CC(=O)Nc4cccc(F)c4)[nH]n3)ncnc2c1 [AZD2811] (first compound max 1 µM, 7x7, partner max 1 µM): the Bliss excess in assay [1] was -0.08; in assay [2] it was -0.0485; in assay [4], -0.0546; in assay [5] it was -0.0421; in assay [8], -0.0623; in assay [6] it was -0.0656. Besides, the Bliss excess in assay [7] is -0.0194.

As to `Cn1cnc2c(F)c(Nc3ccc(Br)cc3Cl)c(C(=O)NOCCO)cc21` [Selumetinib] + C=CCn1c(=O)c2cnc(Nc3ccc(N4CCN(C)CC4)cc3)nc2n1-c1cccc(C(C)(C)O)n1 [AZD1775] (first compound max 10 µM, partner max 1 µM), the Bliss excess in assay [1] was -0.0399; in assay [2], -0.0375; in assay [4] it was -0.0193; in assay [5] it was -0.0676; in assay [8], -0.0761; in assay [6] it was 0.023. Further, the Bliss excess in assay [7] is -0.0546.

With `COc1nnc2ccc(N3CCC(c4ccc(OCCN5CCN(C)C(=O)[C@H]5C)cc4)CC3)nn12` [AZD5153] + C[C@@H]1COCCN1C2=NC(=NC(=C2)C3(CC3)[S@](=N)(=O)C)C4=C5C=CNC5=NC=C4 [AZD6738] (first compound max 1 µM, 7x7, partner max 10 µM), the Bliss excess in assay [1] was -0.022; in assay [2], -0.0057; in assay [4], -0.043; in assay [5], -0.0571; in assay [8], 0.0079; in assay [6], -0.17. Besides, in assay [7], the Bliss excess was -0.0438.

As to `Cn1cnc2c(F)c(Nc3ccc(Br)cc3Cl)c(C(=O)NOCCO)cc21` [Selumetinib] + C[C@@H]1COCCN1C2=NC(=NC(=C2)C3(CC3)[S@](=N)(=O)C)C4=C5C=CNC5=NC=C4 [AZD6738] (first compound max 10 µM, 7x7, partner max 10 µM), the Bliss excess in assay [1] was 0.0147; in assay [2], 0.045; in assay [4] it was -0.0232; in assay [5], -0.026; in assay [8] it was 0.002; in assay [6] it was -0.0157. The Bliss excess in assay [7] is -0.0145.

Take `Cn1cnc2c(F)c(Nc3ccc(Br)cc3Cl)c(C(=O)NOCCO)cc21` [Selumetinib] + CCN(CCO)CCCOc1ccc2c(Nc3cc(CC(=O)Nc4cccc(F)c4)[nH]n3)ncnc2c1 [AZD2811] (first compound max 10 µM, 7x7, partner max 1 µM): the Bliss excess was -0.0209 in assay [1]; 0.0018 in assay [2]; -0.0491 in assay [4]; -0.0026 in assay [5]; -0.0428 in assay [8]; 0.0696 in assay [6]. Also, the Bliss excess in assay [7] was -0.0324.

As to `Cn1cnc2c(F)c(Nc3ccc(Br)cc3Cl)c(C(=O)NOCCO)cc21` [Selumetinib] + CC(C)n1c(=O)n(C)c2cnc3cc(F)c(-c4ccc(OCCCN5CCCCC5)nc4)cc3c21 [AZD1390] (first compound max 10 µM, 7x7, partner max 0.3 µM), the Bliss excess was -0.0537 in assay [1]; -0.021 in assay [2]; 0.0021 in assay [4]; -0.0377 in assay [5]; -0.0334 in assay [8]; -0.0234 in assay [6]. In addition, the Bliss excess in assay [7] was -0.0993.

`COc1nnc2ccc(N3CCC(c4ccc(OCCN5CCN(C)C(=O)[C@H]5C)cc4)CC3)nn12` [AZD5153] + CC1(C)CCC(CN2CCN(c3ccc(C(=O)NS(=O)(=O)c4ccc(NCC5CCOCC5)c([N+](=O)[O-])c4)c(Oc4cnc5[nH]ccc5c4)c3)CC2)=C(c2ccc(Cl)cc2)C1 [Venetoclax] (first compound max 1 µM, 7x7, partner max 1 µM): the Bliss excess is -0.0874 in assay [1]; -0.049 in assay [2]; -0.0109 in assay [4]; -0.0438 in assay [5]; -0.0522 in assay [8]; -0.0153 in assay [6]. For the same molecule, the Bliss excess in assay [7] is -0.124.

For `COc1nnc2ccc(N3CCC(c4ccc(OCCN5CCN(C)C(=O)[C@H]5C)cc4)CC3)nn12` [AZD5153] + Cc1c2c(nn1C)CSCc1cc(n(C)n1)CSc1cc(c3ccccc3c1)OCCCc1c(C(=O)O)n(C)c3c-2c(Cl)ccc13 [AZD5991] (first compound max 1 µM, 7x7, partner max 1 µM), the Bliss excess in assay [1] is -0.0534; in assay [2] it was -0.0635; in assay [4] it was 0.034; in assay [5], -0.0189; in assay [8] it was -0.0442; in assay [6], -0.0409. Besides, the Bliss excess in assay [7] was -0.0628.

For the molecule `C[C@@H](c1ccc2nccn2c1)n1nnc2ncc(-c3cnn(C)c3)nc21` [Savolitinib] + Cc1c2c(nn1C)CSCc1cc(n(C)n1)CSc1cc(c3ccccc3c1)OCCCc1c(C(=O)O)n(C)c3c-2c(Cl)ccc13 [AZD5991] (first compound max 1 µM, 7x7, partner max 1 µM), the Bliss excess in assay [1] is -0.0702; in assay [2], -0.0085; in assay [4], -0.0411; in assay [5], -0.048; in assay [8] it was -0.0465; in assay [6], -0.0329. In addition, in assay [7], the Bliss excess was -0.0252.

Consider `COc1cc2ncnc(Nc3ccc(F)c(Cl)c3)c2cc1OCCCN1CCOCC1` [Gefitinib] + CC(C)n1c(=O)n(C)c2cnc3cc(F)c(-c4ccc(OCCCN5CCCCC5)nc4)cc3c21 [AZD1390] (first compound max 10 µM, 7x7, partner max 0.3 µM), for which the Bliss excess in assay [1] is -0.0286; in assay [2] it was -0.0479; in assay [4], -0.0145; in assay [5] it was -0.0733; in assay [8], -0.0986; in assay [6], -0.0657. Besides, the Bliss excess in assay [7] was -0.0669.

Source of the values: the supplement of paper PMC11061612.
